Data taken from the kinase profiling compilation of Christmann-Franck et al. (2016).
Values joined by “and” are separate entries in the source; they are usually repeats but may differ in a detail not shown here. Equal entries are not always repeated.

How the values were obtained:
Experiment in all cases: radiometric filter-binding kinase assay, Kinase HotSpot
Settings in all cases: compound 0.5 µM; ATP 10 µM
ADRBK1 (human) = ADRBK1 (human) (UniProt P25098)
AKT2 (human) = AKT2 (human) (UniProt P31751)
AURKA (human) = AURKA (human) (UniProt O14965)
CAMK1D (human) = CAMK1D (human) (UniProt Q8IU85)
CAMK4 (human) = CAMK4 (human) (UniProt Q16566)
CAMKK1 (human) = CAMKK1 (human) (UniProt Q8N5S9)
CDK4 CCND3 (human) = CDK4 CCND3 (human) (UniProt P30281+P11802)
CSF1R (human) = CSF1R (human) (UniProt P07333)
DYRK4 (human) = DYRK4 (human) (UniProt Q9NR20)
EPHA3 (human) = EPHA3 (human) (UniProt P29320)
EPHA5 (human) = EPHA5 (human) (UniProt P54756)
EPHB1 (human) = EPHB1 (human) (UniProt P54762)
FRK (human) = FRK (human) (UniProt P42685)
FYN (human) = FYN (human) (UniProt P06241)
GRK5 (human) = GRK5 (human) (UniProt P34947)
HCK (human) = HCK (human) (UniProt P08631)
HIPK1 (human) = HIPK1 (human) (UniProt Q86Z02)
HIPK2 (human) = HIPK2 (human) (UniProt Q9H2X6)
IKBKB (human) = IKBKB (human) (UniProt O14920)
LYN (human) = LYN (human) (UniProt P07948)
MAPK13 (human) = MAPK13 (human) (UniProt O15264)
MARK4 (human) = MARK4 (human) (UniProt Q96L34)
MATK (human) = MATK (human) (UniProt P42679)
MELK (human) = MELK (human) (UniProt Q14680)
MYLK (human) = MYLK (human) (UniProt Q15746)
NEK11 (human) = NEK11 (human) (UniProt Q8NG66)
NEK3 (human) = NEK3 (human) (UniProt P51956)
NUAK2 (human) = NUAK2 (human) (UniProt Q9H093)
OXSR1 (human) = OXSR1 (human) (UniProt O95747)
PDGFRB (human) = PDGFRB (human) (UniProt P09619)
PIM3 (human) = PIM3 (human) (UniProt Q86V86)
PKN2 (human) = PKN2 (human) (UniProt Q16513)
PRKCB1 (human) = PRKCB1 (human) (UniProt P05771)
PTK2 (human) = PTK2 (human) (UniProt Q05397)
RPS6KB1 (human) = RPS6KB1 (human) (UniProt P23443)
SLK (human) = SLK (human) (UniProt Q9H2G2)
STK16 (human) = STK16 (human) (UniProt O75716)
TBK1 (human) = TBK1 (human) (UniProt Q9UHD2)
TEC (human) = TEC (human) (UniProt P42680)
TGFBR2 (human) = TGFBR2 (human) (UniProt P37173)
TNK2 (human) = TNK2 (human) (UniProt Q07912)
TTK (human) = TTK (human) (UniProt P33981)
Chain of TTK (human) (P33981 whole entry, looked up): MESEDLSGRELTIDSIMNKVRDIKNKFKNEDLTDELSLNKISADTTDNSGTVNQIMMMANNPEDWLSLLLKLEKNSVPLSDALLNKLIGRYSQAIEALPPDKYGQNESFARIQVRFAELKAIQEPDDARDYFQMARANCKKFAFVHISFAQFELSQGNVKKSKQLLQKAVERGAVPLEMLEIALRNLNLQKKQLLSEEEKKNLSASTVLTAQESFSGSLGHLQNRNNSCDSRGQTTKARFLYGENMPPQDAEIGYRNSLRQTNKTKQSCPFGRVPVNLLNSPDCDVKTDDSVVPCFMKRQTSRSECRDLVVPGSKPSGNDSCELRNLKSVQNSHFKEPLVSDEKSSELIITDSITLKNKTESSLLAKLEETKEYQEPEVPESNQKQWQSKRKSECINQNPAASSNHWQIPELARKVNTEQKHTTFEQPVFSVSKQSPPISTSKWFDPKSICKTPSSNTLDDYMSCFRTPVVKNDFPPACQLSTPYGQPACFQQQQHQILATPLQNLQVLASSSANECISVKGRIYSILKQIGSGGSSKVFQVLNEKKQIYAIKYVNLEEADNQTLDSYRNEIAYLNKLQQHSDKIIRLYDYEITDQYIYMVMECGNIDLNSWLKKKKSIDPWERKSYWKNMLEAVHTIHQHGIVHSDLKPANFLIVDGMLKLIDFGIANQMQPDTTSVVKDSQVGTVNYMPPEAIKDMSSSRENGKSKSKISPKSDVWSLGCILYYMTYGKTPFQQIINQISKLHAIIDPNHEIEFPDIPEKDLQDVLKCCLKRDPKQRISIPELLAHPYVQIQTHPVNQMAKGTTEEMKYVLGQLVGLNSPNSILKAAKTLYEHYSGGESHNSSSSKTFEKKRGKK

Chain of EPHB1 (human) (P54762 whole entry, looked up): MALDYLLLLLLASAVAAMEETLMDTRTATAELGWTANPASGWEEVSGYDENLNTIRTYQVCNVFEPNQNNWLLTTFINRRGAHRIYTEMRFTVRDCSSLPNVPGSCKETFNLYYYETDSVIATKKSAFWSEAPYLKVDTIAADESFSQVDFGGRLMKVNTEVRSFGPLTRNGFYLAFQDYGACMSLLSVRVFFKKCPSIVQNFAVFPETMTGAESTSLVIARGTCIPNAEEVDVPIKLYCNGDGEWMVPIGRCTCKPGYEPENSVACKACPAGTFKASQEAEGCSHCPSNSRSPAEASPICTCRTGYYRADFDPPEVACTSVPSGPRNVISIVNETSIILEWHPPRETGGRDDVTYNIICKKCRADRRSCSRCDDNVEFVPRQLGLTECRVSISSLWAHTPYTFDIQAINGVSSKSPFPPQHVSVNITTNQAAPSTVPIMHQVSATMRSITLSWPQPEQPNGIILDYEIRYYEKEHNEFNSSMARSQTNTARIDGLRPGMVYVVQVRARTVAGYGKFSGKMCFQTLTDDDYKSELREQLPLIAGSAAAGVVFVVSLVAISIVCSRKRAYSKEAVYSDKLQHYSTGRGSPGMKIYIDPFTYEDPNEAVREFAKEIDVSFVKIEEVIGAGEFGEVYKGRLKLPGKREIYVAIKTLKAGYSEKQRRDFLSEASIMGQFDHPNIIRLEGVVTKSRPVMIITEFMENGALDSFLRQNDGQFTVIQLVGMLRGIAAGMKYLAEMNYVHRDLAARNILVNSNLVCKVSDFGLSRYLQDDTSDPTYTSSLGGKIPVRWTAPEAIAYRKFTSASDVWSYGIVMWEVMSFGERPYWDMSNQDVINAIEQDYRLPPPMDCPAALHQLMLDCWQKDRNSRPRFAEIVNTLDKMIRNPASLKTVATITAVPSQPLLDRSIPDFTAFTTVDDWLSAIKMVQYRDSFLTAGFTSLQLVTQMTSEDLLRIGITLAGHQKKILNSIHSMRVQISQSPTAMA
Chain of EPHA3 (human) (P29320 whole entry, looked up): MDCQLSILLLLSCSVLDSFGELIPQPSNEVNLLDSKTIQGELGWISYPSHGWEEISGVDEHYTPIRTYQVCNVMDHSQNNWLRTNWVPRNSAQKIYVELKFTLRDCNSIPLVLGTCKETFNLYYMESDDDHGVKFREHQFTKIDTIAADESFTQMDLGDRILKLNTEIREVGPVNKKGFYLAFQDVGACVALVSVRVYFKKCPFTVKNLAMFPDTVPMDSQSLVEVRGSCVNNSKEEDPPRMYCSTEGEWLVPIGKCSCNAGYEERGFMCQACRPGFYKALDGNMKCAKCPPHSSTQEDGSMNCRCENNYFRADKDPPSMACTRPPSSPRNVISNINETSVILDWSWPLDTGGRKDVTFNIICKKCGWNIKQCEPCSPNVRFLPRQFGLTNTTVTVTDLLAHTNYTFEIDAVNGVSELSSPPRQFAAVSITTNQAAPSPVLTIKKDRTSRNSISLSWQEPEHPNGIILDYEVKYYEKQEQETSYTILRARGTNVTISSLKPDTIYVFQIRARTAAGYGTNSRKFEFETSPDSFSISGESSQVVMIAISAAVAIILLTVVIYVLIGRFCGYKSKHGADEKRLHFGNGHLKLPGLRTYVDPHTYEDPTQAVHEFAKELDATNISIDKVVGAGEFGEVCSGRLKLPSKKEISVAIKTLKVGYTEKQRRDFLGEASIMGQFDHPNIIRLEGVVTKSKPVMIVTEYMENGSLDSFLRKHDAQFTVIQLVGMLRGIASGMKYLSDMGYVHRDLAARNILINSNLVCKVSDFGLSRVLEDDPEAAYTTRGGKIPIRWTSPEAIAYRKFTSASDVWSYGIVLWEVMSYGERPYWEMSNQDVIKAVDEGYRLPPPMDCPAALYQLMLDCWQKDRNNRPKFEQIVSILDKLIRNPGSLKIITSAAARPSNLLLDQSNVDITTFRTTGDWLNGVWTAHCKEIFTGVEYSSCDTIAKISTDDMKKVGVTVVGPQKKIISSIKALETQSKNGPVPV
Chain of MARK4 (human) (Q96L34 whole entry, looked up): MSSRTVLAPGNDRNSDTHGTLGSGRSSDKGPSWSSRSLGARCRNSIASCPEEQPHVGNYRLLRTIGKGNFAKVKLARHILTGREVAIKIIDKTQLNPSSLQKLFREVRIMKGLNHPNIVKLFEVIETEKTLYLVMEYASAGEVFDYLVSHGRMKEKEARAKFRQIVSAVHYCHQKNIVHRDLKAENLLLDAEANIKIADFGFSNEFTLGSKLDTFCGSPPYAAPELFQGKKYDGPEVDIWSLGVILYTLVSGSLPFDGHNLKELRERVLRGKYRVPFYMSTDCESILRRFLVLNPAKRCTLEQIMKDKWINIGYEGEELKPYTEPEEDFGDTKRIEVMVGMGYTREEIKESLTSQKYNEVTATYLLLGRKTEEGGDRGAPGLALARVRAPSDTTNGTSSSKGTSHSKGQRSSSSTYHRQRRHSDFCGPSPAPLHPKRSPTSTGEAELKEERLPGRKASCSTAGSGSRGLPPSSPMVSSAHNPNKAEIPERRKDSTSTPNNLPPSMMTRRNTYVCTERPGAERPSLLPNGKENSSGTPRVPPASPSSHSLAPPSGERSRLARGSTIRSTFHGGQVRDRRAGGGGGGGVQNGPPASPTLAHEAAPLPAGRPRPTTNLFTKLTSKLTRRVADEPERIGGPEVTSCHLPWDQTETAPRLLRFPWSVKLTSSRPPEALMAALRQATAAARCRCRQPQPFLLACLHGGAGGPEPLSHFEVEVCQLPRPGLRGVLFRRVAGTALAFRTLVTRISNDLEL
Chain of CAMK1D (human) (Q8IU85 whole entry, looked up): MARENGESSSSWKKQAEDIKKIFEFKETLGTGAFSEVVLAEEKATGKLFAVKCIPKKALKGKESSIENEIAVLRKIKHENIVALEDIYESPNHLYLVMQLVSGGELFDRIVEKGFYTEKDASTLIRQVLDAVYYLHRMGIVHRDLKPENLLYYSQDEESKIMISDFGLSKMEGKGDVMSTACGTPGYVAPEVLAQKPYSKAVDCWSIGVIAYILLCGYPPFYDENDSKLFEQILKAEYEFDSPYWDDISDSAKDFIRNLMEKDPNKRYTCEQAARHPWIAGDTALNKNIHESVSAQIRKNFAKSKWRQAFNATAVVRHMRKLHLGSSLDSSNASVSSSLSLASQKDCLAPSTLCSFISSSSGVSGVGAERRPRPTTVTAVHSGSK
Chain of MAPK13 (human) (O15264 whole entry, looked up): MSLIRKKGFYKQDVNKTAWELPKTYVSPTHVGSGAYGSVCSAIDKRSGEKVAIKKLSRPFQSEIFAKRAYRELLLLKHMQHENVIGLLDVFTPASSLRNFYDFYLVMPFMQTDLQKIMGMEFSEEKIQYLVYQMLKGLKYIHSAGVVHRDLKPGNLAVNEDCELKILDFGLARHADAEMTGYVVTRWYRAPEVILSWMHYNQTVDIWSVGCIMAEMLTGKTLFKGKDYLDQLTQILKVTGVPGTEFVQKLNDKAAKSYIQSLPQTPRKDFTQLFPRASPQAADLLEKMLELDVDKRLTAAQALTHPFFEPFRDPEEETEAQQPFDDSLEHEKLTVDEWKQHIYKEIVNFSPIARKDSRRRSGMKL
Chain of PRKCB1 (human) (P05771 whole entry, looked up): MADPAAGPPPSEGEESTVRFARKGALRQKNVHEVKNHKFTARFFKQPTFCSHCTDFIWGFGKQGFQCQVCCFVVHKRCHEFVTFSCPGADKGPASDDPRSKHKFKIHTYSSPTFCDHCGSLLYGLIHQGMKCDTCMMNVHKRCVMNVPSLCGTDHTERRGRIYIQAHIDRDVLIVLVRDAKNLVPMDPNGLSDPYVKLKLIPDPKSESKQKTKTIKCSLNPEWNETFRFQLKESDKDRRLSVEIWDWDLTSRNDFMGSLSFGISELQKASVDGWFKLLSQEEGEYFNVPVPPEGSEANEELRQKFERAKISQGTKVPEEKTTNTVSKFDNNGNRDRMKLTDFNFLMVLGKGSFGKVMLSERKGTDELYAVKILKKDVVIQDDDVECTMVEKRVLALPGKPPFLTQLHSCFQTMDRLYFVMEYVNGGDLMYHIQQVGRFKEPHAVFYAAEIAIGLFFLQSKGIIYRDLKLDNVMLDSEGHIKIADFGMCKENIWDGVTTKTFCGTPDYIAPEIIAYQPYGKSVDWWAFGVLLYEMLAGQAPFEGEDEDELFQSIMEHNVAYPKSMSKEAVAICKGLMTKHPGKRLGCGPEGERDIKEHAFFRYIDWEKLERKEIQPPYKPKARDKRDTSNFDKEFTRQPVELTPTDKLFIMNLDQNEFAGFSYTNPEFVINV

Compound `O=C(c1ccccc1)c1ccc(N2CCOCC2)cc1O` has a residual activity (ADRBK1 (human)) of 99.6%, a residual activity (AKT2 (human)) of 97.9% and a residual activity (AURKA (human)) of 108%. The residual activity (CAMK1D (human)) was 99.1%, the residual activity (CAMK4 (human)) was 94.7% and the residual activity (CAMKK1 (human)) was 107%. For the same compound, the residual activity (CDK4 CCND3 (human)) was 96.2%, the residual activity (CSF1R (human)) was 99.7% and the residual activity (DYRK4 (human)) was 94.9%. The residual activity (EPHA3 (human)) was 105%, the residual activity (EPHA5 (human)) was 112% and the residual activity (EPHB1 (human)) was 104%. It also gave a residual activity (FRK (human)) of 102%, a residual activity (FYN (human)) of 106% and a residual activity (GRK5 (human)) of 105%. It also gave a residual activity (HCK (human)) of 114%, a residual activity (HIPK1 (human)) of 104% and a residual activity (HIPK2 (human)) of 105%. For the same compound, the residual activity (IKBKB (human)) was 105%, the residual activity (LYN (human)) was 100% and 105% and the residual activity (MAPK13 (human)) was 106%. It also gave a residual activity (MARK4 (human)) of 100%, a residual activity (MATK (human)) of 92.5% and a residual activity (MELK (human)) of 103%. For the same compound, the residual activity (MYLK (human)) was 91.8%, the residual activity (NEK11 (human)) was 97.7% and the residual activity (NEK3 (human)) was 95.6%. For the same compound, the residual activity (NUAK2 (human)) was 111%, the residual activity (OXSR1 (human)) was 110% and the residual activity (PDGFRB (human)) was 96.5%. For the same compound, the residual activity (PIM3 (human)) was 98.9%, the residual activity (PKN2 (human)) was 96.8% and the residual activity (PRKCB1 (human)) was 90.1%. It also gave a residual activity (PTK2 (human)) of 109%, a residual activity (RPS6KB1 (human)) of 95.3% and a residual activity (SLK (human)) of 106%. The residual activity (STK16 (human)) was 104%, the residual activity (TBK1 (human)) was 100% and the residual activity (TEC (human)) was 119%. The residual activity (TGFBR2 (human)) was 109%, the residual activity (TNK2 (human)) was 104% and the residual activity (TTK (human)) was 104%.

Work on `O=c1c2ccccc2[nH]c(=S)n1CCN1CCC(=C(c2ccc(F)cc2)c2ccc(F)cc2)CC1` yielded a residual activity (ADRBK1 (human)) of 100%, a residual activity (AKT2 (human)) of 101% and a residual activity (AURKA (human)) of 100%. For the same compound, the residual activity (CAMK1D (human)) was 96.8%, the residual activity (CAMK4 (human)) was 94.7% and the residual activity (CAMKK1 (human)) was 110%. It also gave a residual activity (CDK4 CCND3 (human)) of 99%, a residual activity (CSF1R (human)) of 102% and a residual activity (DYRK4 (human)) of 97.5%. It also gave a residual activity (EPHA3 (human)) of 101%, a residual activity (EPHA5 (human)) of 112% and a residual activity (EPHB1 (human)) of 100%. For the same compound, the residual activity (FRK (human)) was 100%, the residual activity (FYN (human)) was 102% and the residual activity (GRK5 (human)) was 103%. The residual activity (HCK (human)) was 114%, the residual activity (HIPK1 (human)) was 107% and the residual activity (HIPK2 (human)) was 105%. For the same compound, the residual activity (IKBKB (human)) was 99.5%, the residual activity (LYN (human)) was 105% and 108% and the residual activity (MAPK13 (human)) was 106%. It also gave a residual activity (MARK4 (human)) of 102%, a residual activity (MATK (human)) of 92.9% and a residual activity (MELK (human)) of 104%. The residual activity (MYLK (human)) was 96.2%, the residual activity (NEK11 (human)) was 94% and the residual activity (NEK3 (human)) was 94%. The residual activity (NUAK2 (human)) was 106%, the residual activity (OXSR1 (human)) was 115% and the residual activity (PDGFRB (human)) was 112%. For the same compound, the residual activity (PIM3 (human)) was 108%, the residual activity (PKN2 (human)) was 97.2% and the residual activity (PRKCB1 (human)) was 96%. For the same compound, the residual activity (PTK2 (human)) was 105%, the residual activity (RPS6KB1 (human)) was 97.9% and the residual activity (SLK (human)) was 103%. The residual activity (STK16 (human)) was 104%, the residual activity (TBK1 (human)) was 104% and the residual activity (TEC (human)) was 110%. The residual activity (TGFBR2 (human)) was 119%, the residual activity (TNK2 (human)) was 105% and the residual activity (TTK (human)) was 96.3%.

Compound `O=C1NC(=O)c2cc(Nc3ccc(F)cc3)c(Nc3ccc(F)cc3)cc21` has a residual activity (ADRBK1 (human)) of 104%, a residual activity (AKT2 (human)) of 95.1% and a residual activity (AURKA (human)) of 92.7%. For the same compound, the residual activity (CAMK1D (human)) was 78.1%, the residual activity (CAMK4 (human)) was 98.7% and the residual activity (CAMKK1 (human)) was 90.2%. It also gave a residual activity (CDK4 CCND3 (human)) of 99%, a residual activity (CSF1R (human)) of 104% and a residual activity (DYRK4 (human)) of 98.6%. It also gave a residual activity (EPHA3 (human)) of 96.6%, a residual activity (EPHA5 (human)) of 95.4% and a residual activity (EPHB1 (human)) of 103%. For the same compound, the residual activity (FRK (human)) was 97.2%, the residual activity (FYN (human)) was 99.4% and the residual activity (GRK5 (human)) was 101%. The residual activity (HCK (human)) was 88.3%, the residual activity (HIPK1 (human)) was 102% and the residual activity (HIPK2 (human)) was 96.6%. The residual activity (IKBKB (human)) was 95.6%, the residual activity (LYN (human)) was 97.8% and 98.7% and the residual activity (MAPK13 (human)) was 99.4%. It also gave a residual activity (MARK4 (human)) of 98.2%, a residual activity (MATK (human)) of 93.5% and a residual activity (MELK (human)) of 92%. It also gave a residual activity (MYLK (human)) of 100%, a residual activity (NEK11 (human)) of 103% and a residual activity (NEK3 (human)) of 99.1%. It also gave a residual activity (NUAK2 (human)) of 112%, a residual activity (OXSR1 (human)) of 101% and a residual activity (PDGFRB (human)) of 93.9%. The residual activity (PIM3 (human)) was 105%, the residual activity (PKN2 (human)) was 102% and the residual activity (PRKCB1 (human)) was 28.2%. For the same compound, the residual activity (PTK2 (human)) was 96%, the residual activity (RPS6KB1 (human)) was 95.5% and the residual activity (SLK (human)) was 65.5%. The residual activity (STK16 (human)) was 85.8%, the residual activity (TBK1 (human)) was 101% and the residual activity (TEC (human)) was 102%. The residual activity (TGFBR2 (human)) was 85.2%, the residual activity (TNK2 (human)) was 93.2% and the residual activity (TTK (human)) was 95.4%.
